The target in the assay is T1, cathepsin K (Homo sapiens, UniProt P43235).
T1 sequence (P43235 115-329): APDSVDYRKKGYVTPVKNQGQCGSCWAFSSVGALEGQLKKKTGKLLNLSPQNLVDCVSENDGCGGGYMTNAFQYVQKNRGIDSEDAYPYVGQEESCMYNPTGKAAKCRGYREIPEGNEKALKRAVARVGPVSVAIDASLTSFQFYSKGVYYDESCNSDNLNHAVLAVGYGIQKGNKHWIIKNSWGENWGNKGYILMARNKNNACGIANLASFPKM
As to the kind of experiment: Determination of cathepsin K proteolytic catalytic activity; inhibition studies (progress curve method). It is filed as biochemical. To be noted: human recombinant enzyme, fluorogenic substrate Cbz-Phe-Arg-AMC, pH 5.5. The procedure:
Determination of cathepsin K proteolytic catalytic activity
All assays for cathepsin K were carried out with human recombinant enzyme. Standard assay conditions for the determination of kinetic constants used a fluorogenic peptide substrate, typically Cbz-Phe-Arg-AMC, and were determined in 100 mM Na acetate at pH 5.5 containing 20 mM cysteine and 5 mM EDTA. Stock substrate solutions were prepared at concentrations of 10 or 20 mM in DMSO with 20 uM final substrate concentration in the assays. All assays contained 10% DMSO. […] All assays were conducted at ambient temperature. Product fluorescence (excitation at 360 nm; emission at 460 nm) was monitored with a Perceptive Biosystems Cytofluor II fluorescent plate reader. […]
Potential inhibitors were evaluated using the progress curve method. […] For those compounds whose progress curves were linear, apparent inhibition constants (Ki,app) were calculated according to equation 1 (Brandt et al., Biochemitsry, 1989, 28, 140): […]
[AMC]=νSSt+(ν0−νSS) [I−exp(−kobst)]/kobs (2) where [AMC] is the concentration of product formed over time t, ν0 is the initial reaction velocity and νSS is the final steady state rate. Values for kobs were then analyzed as a linear function of inhibitor concentration to generate an apparent second order rate constant (kobs/inhibitor concentration or kobs/[1]) describing the time-dependent inhibition. […]

A value given as a limit tells only on which side of the number the result lay.

This note sets out measurements from patent US20040180927A1, “Inhibitors of cysteine protease” (SmithKline Beecham Corporation, priority 1996, published 2004).

A word on the Ki: it is a measure of affinity in units of concentration, obtained from inhibition or displacement.

As for `CC(C)C[C@H](NS(=O)(=O)c1cccc2cccnc12)C(=O)NC1COCC1=O` (mixture of isomers) [4-(R,S)-Amino-N-[(8-quinolinesulfonyl)-S-leucine]-3-tetrahydrofuran-3-one], the inhibition constant (Ki) is over 10 µM.
